Entries after “also recorded” stand apart in the source; their conditions may differ.
Molecular target: tRNA guanine transglycosylase (TGT) (Escherichia coli, UniProt P0A847)
Test: TGT labeling of DNA/RNA hairpin oligos with PreQ1 probes, urea PAGE gel shift
Format: biochemical, E. coli
Conditions: for labeling of the representative DNA hairpin substrate by functional PreQ1 probes: urea PAGE gel shift assays; for turn over by TGT: extended stem DNA analog of ECYA1 with minimal recognition element mutations, denaturing urea PAGE shift and intensity; for labeled product: 17 nucleotide DNA hairpins derived from cognate tRNA anticodon loops
[1] = urea PAGE gel shift and intensity

tRNA guanine transglycosylase (TGT), sequence (P0A847 whole entry): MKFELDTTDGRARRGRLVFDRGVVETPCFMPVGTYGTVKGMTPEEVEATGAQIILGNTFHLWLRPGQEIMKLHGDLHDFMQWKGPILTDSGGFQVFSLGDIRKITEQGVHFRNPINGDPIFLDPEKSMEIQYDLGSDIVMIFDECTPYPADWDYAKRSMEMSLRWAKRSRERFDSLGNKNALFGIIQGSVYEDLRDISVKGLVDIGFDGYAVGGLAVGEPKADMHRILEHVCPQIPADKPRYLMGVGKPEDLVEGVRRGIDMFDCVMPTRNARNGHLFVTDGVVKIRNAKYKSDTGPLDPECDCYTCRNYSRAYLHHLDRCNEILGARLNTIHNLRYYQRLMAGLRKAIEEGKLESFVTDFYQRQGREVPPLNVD

## CTGGACTGTCACTCCAG [His(stem)-Asp(loop)]
Composite hairpins with swapped stems and loops, urea PAGE gel shift and intensity
  labeling efficiency: over 50%

## Nc1nc2[nH]cc(CNCCCCCCNC(=O)CCCCC3SCC4NC(=O)NC43)c2c(=O)[nH]1 (stereo not shown) [PreQ1-biotin]
  labeling of the representative DNA hairpin substrate by functional PreQ1 probes: Quantitative labeling

## GGGAGCAGACTGUAAATCTGCTCCC [dTdGdU]
PreQ1-biotin probe
  turn over by TGT: comparable turn over to the wildtype RNA substrate

## GGGAGCAGACUGTAAATCTGCTCCC [dUdGdT]
PreQ1-biotin probe
  turn over by TGT: no appreciable turn over

## CTGGATTGTGATTCCAG
[1]
  labeled product: ~40%

## CCTGCCTGTCACGCAGG
[1]
  labeled product: ~40%

## GGGAGCAGACTGTAAATCTGCTCCC [dTdGdT]
PreQ1-biotin probe
  turn over by TGT: no appreciable turn over

## GCAGACTGTAAATCTGC [tyrosine based counterpart]
[1]
  labeled product: ~-5%

## GGGAGCAGACUGUAAATCTGCTCCC [dUdGdU]
PreQ1-biotin probe
  turn over by TGT: comparable turn over to the wildtype RNA substrate

## Alexa Fluor 647
  labeling of the representative DNA hairpin substrate by functional PreQ1 probes: Quantitative labeling

## CTGGATTGTCCTTCCAG [SEQ ID NO:21]
LCMS analysis of PreQ1-biotin labeled sequence
  labeling with PreQ1-biotin confirmed by LCMS: efficient labeling
PreQ1-biotin probe, urea PAGE gel shift, listed as TAG2 DNA hairpin
  labeling of hairpin or loop sequence appended to longer ssDNA: can be modified internally; also recorded: can be modified at either end of a DNA sequence of interest

## TAMRA
  labeling of the representative DNA hairpin substrate by functional PreQ1 probes: Quantitative labeling

Reference: patent US20240247250A1, “COMPOSITIONS AND METHODS FOR MODIFYING DNA” (The Regents of the University of California, priority 2021, published 2024)
